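Exposure lasted 48 hours, with cells grown in 96-well plates and compounds tested at five concentrations. GI50 is the concentration that inhibits growth by half.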 Active and inactive are the calls of the source. No stated cut-off is given here; in the data, active = GI50 up to about 1.1 µM and inactive = higher.
Key:
Experiment in all cases: growth of human tumour cells (NCI), 48 h
U-251 = system: U-251
OVCAR-3 = system: OVCAR-3
SK-MEL-28 = system: SK-MEL-28
HCT-116 = system: HCT-116
ACHN = system: ACHN
CCRF-CEM = system: CCRF-CEM
HCT-15 = system: HCT-15
LXFL 529 = system: LXFL 529
OVCAR-8 = system: OVCAR-8
SN12C = system: SN12C
UACC-62 = system: UACC-62
RXF 393 = system: RXF 393
HOP-62 = system: HOP-62
SF-268 = system: SF-268
MOLT-4 = system: MOLT-4
SF-295 = system: SF-295
786-0 = system: 786-0
A498 = system: A498
HL-60 = system: HL-60
NCI-H226 = system: NCI-H226

Structure (SMILES): Cc1ccc(-n2nc(C(OC3OC(CO)C(O)C(O)C3O)C(O)CO)c3nc4cc(C)c(C)cc4nc32)cc1 (centres undefined)
- GI50 (U-251): > 100 µM (inactive)
- GI50 (OVCAR-3): > 100 µM (inactive)
- GI50 (SK-MEL-28): > 100 µM (inactive)
- GI50 (HCT-116): > 100 µM (inactive)
- GI50 (ACHN): > 100 µM (inactive)
- GI50 (CCRF-CEM): > 100 µM (inactive)
- GI50 (HCT-15): > 100 µM
- GI50 (LXFL 529): > 100 µM (inactive)
- GI50 (OVCAR-8): > 100 µM (inactive)
- GI50 (SN12C): > 100 µM (inactive)
- GI50 (UACC-62): > 100 µM (inactive)
- GI50 (RXF 393): 36.2 µM (inactive)
- GI50 (HOP-62): > 100 µM (inactive)
- GI50 (SF-268): > 100 µM (inactive)
- GI50 (MOLT-4): > 100 µM (inactive)
- GI50 (SF-295): > 100 µM (inactive)
- GI50 (786-0): > 100 µM (inactive)
- GI50 (A498): > 100 µM (inactive)

Structure (SMILES): CC1(C)OCC([C@H]2CC23SCCCS3)O1 (some centres undefined)
- GI50 (U-251): > 100 µM (inactive)
- GI50 (SK-MEL-28): > 100 µM (inactive)
- GI50 (HCT-116): > 100 µM (inactive)
- GI50 (ACHN): > 100 µM (inactive)
- GI50 (HCT-15): > 100 µM
- GI50 (LXFL 529): > 100 µM (inactive)
- GI50 (OVCAR-8): > 100 µM (inactive)
- GI50 (SN12C): > 100 µM (inactive)
- GI50 (UACC-62): > 100 µM (inactive)
- GI50 (RXF 393): > 100 µM (inactive)
- GI50 (HL-60): > 100 µM (inactive)
- GI50 (HOP-62): > 100 µM (inactive)
- GI50 (NCI-H226): > 100 µM (inactive)
- GI50 (SF-268): > 100 µM (inactive)
- GI50 (MOLT-4): > 100 µM (inactive)
- GI50 (SF-295): > 100 µM (inactive)
- GI50 (786-0): > 100 µM (inactive)
- GI50 (A498): > 100 µM (inactive)

Structure (SMILES): COc1ccc2nc(-c3ccc(O)cc3)ccc2c1
- GI50 (OVCAR-3): > 100 µM (inactive)
- GI50 (SK-MEL-28): > 100 µM (inactive)
- GI50 (HCT-116): > 100 µM (inactive)
- GI50 (ACHN): > 100 µM (inactive)
- GI50 (CCRF-CEM): 2.16 µM (inactive)
- GI50 (LXFL 529): > 100 µM (inactive)
- GI50 (OVCAR-8): > 100 µM (inactive)
- GI50 (SN12C): > 100 µM (inactive)
- GI50 (UACC-62): > 100 µM (inactive)
- GI50 (RXF 393): > 100 µM (inactive)
- GI50 (HL-60): > 100 µM (inactive)
- GI50 (HOP-62): > 100 µM (inactive)
- GI50 (NCI-H226): > 100 µM (inactive)
- GI50 (SF-268): 1.22 µM (inactive)
- GI50 (MOLT-4): > 100 µM (inactive)
- GI50 (SF-295): > 100 µM (inactive)
- GI50 (786-0): > 100 µM (inactive)

Structure (SMILES): Cc1cccc(NC(=O)/C(=N\N)C(c2cnc3ccc([N+](=O)[O-])cc3n2)[N+](=O)[O-])c1C (centres undefined)
- GI50 (OVCAR-3): > 100 µM (inactive)
- GI50 (SK-MEL-28): > 100 µM (inactive)
- GI50 (HCT-116): > 100 µM (inactive)
- GI50 (ACHN): > 100 µM (inactive)
- GI50 (CCRF-CEM): > 100 µM (inactive)
- GI50 (HCT-15): 53.8 µM
- GI50 (LXFL 529): > 100 µM (inactive)
- GI50 (OVCAR-8): > 100 µM (inactive)
- GI50 (SN12C): > 100 µM (inactive)
- GI50 (UACC-62): 66.2 µM (inactive)
- GI50 (RXF 393): > 100 µM (inactive)
- GI50 (HL-60): > 100 µM (inactive)
- GI50 (HOP-62): > 100 µM (inactive)
- GI50 (NCI-H226): > 100 µM (inactive)
- GI50 (SF-268): > 100 µM (inactive)
- GI50 (MOLT-4): > 100 µM (inactive)
- GI50 (SF-295): > 100 µM (inactive)
- GI50 (786-0): > 100 µM (inactive)

Structure (SMILES): C[C@]12CCC(=O)C=C1CC[C@@H]1[C@@H]2C(=O)C[C@@]2(C)[C@H]1CC[C@]2(O)C(=O)CO [CORTISONE]
- GI50 (U-251): > 100 µM (inactive)
- GI50 (OVCAR-3): > 100 µM (inactive)
- GI50 (SK-MEL-28): > 100 µM (inactive)
- GI50 (HCT-116): > 100 µM (inactive)
- GI50 (ACHN): > 100 µM (inactive)
- GI50 (CCRF-CEM): > 100 µM (inactive)
- GI50 (HCT-15): > 100 µM
- GI50 (LXFL 529): > 100 µM (inactive)
- GI50 (OVCAR-8): > 100 µM (inactive)
- GI50 (SN12C): > 100 µM (inactive)
- GI50 (RXF 393): > 100 µM (inactive)
- GI50 (HL-60): > 100 µM (inactive)
- GI50 (NCI-H226): > 100 µM (inactive)
- GI50 (SF-268): > 100 µM (inactive)
- GI50 (MOLT-4): > 100 µM (inactive)
- GI50 (SF-295): > 100 µM (inactive)
- GI50 (786-0): > 100 µM (inactive)
- GI50 (A498): > 100 µM (inactive)

— ChEMBL document CHEMBL1201862, “PubChem BioAssay data set” (2004)
